Results on eleven compounds are retold here after patent US5403824A, “Methods for the treatment of osteoporosis” (The Procter & Gamble Company, priority 1993, dated 1995).

In one test the target is mu opioid receptor (Cavia porcellus, UniProt A0ACM8Q262). The experiment in a line: inhibition of [3H]DAGO binding, method of Goldstein et al. Also noted: species or system guinea pig. Particulars: radioligand [3H]DAGO. The text has this:
Affinity for mu opioid receptors can be measured by any of several art-recognized in vitro models. One such model is described by A. Goldstein et al., "Multiple Opioid Receptors: Ligand Selectivity Profiles and Binding Site Signatures", 36 […] 265-272 (1989), which is incorporated herein by reference. According to this model, a test compound is screened for its ability to inhibit binding of a mu-selective radiolabeled ligand ("mu-selective radiolabeled ligand" refers to a radiolabeled compound that is known to have selective affinity for mu opioid receptors) to mu opioid receptor binding sites. More specifically, this in vitro model compares test samples (comprising a mu-selective radiolabeled ligand ("hot ligand"); the non-radiolabeled equivalent to the "hot ligand" ("cold ligand"); test compound at varying concentrations in each test sample; and mu opiate receptor material) and a control sample (comprising hot ligand; cold ligand; and mu opiate receptor material).
Following the protocol set forth by Goldstein et al., the samples are assayed for relative radioactivity.
In assessing a compound's in vitro affinity for mu opioid receptors according the method described by Goldstein et al., the mu-selective radiolabeled ligand (i.e., "hot ligand") is preferrably [^3 H]Tyr-D-Ala-Gly-N-methyl-Phe-Gly(ol) ("[^3 ]DAGO" or "hot DAGO"). […]

Test [1] concerns Rat osteoblast-like cells (ROS 17/2.8). The experiment in a line: [3H]-thymidine incorporation, proliferation of osteoblast-like cells. Format: cell-based. To be noted: ROS 17/2.8, 18 hrs incubation, 2 hrs pulse. The text has this:
Stimulation of osteoblast-like cell proliferation can be measured according to several art-recognized in vitro models. One such model is described in European Patent Publication No. 384,731, by Rodan et al, published Aug. 29, 1990, which is incorporated herein by reference. (Applicants have modified this method by reducing regent volumes to one-quarter those described and by utilizing Dulbecco's Modified eagle's Medium (DMEM).) In this model, proliferation (division) of, for example, rat osteoblast-like cells (rat osteosarcoma (ROS) cells, rat calvaria cells, etc.) is observed by measuring the amount of radiolabeled thymidine ([^3 H]thymidine) incorporated by these cells. ([^3 H]thymidine is "incorporated" by cellular DNA being synthesized as a result of cell proliferation.) The greater the level of [^3 H]thymidine measured, the greater the amount of proliferation of the osteoblast cells.
More specifically, a test sample (comprised of a test compound and osteoblast-like cells) and a control sample (comprised of only osteoblast-like cells) are pulsed with [^3 H]thymidine. The amount of [^3 H]thymidine incorporated by the cells is measured using a direct beta counter.
Rat osteoblast-like cells (ROS 17/2.8) are plated at 4×10^3 cells/well in a 96-well plate in Dulbecco's Modified eagle's Medium supplemented with 2% (v/v) Fetal Bovine Serum, and incubated for 6 hrs. Control (serum-free) medium and test medium (test sample and serum-free medium) are then added to the cells and this combination is incubated for 18 hrs. The cells are then pulsed with [^3 H]-thymidine (1 μCi/well) for 2 hrs. The medium is then removed, the cells are harvested onto glass fibre filters and the amount of [^3 H]-thymidine (counts per minute per well) incorporated into DNA is then determined using a direct beta counter. Values for control groups are then compared to values for treated groups.
The compound H-Tyr-D-Ala-Gly-Phe-D-Leu-OH ("DADLE") is screened to determine whether it stimulates proliferation of osteoblast-like cells. […] The medium is then removed, the cells are harvested onto glass fibre filters, and the amount of ^3 H-thymidine (counts per minute per well) incorporated into DNA is determined using a direct beta counter. […]
The compound Tyr-D-Cys(S-t-butylthioether)-Gly-Phe-Leu-Thr(O-t-butylether) ("BUBUC") is screened to determine whether it stimulates proliferation of osteoblast-like cells. […] The medium is then removed, the cells are harvested onto glass fibre filters, and the amount of ^3 H-thymidine (counts per minute per well) incorporated into DNA is determined using a direct beta counter. […]
(In general: Incorporation of labelled thymidine or its analogues reports DNA synthesis.)

Test [2] relates to human subject with postmenopausal osteoporosis or low bone mass. The experiment in a line: treatment of human subject with osteoporosis, vertebral density by dual-energy photon absorptiometry. Particulars: 30 mg intravenously daily (substitutes at comparable levels), 28 days active / 28 days calcium, two years. Type of test: in vivo. On the procedure: A human subject weighing about 60 kg (132 lbs), suffering from postmenopausal osteoporosis, is treated by a method of this invention. Specifically, for two years, the enkephalin-degrading enzyme inhibitor DL-3-mercapto-2-benzylpropanoylglycine is administered orally, in a cyclical regimen, where each cycle consists of an active period of 28 days during which a tablet containing 160 mg of said inhibitor is administered each day, followed by a non-active period of 28 days during which the subject receives a daily supplement of calcium (1,000 mg/day), with repeat of cycle.
A human subject weighing about 60 kg (132 lbs), suffering from postmenopausal osteoporosis, is treated by a method of this invention. Specifically, for two years, the compound H-Tyr-D-Ala-Gly-Phe-D-Leu-OH ("DADLE") is administered to the subject, in a cyclical regimen, where each cycle consists of an active period of 28 days during which a solution containing 30 mg of DADLE is administered intravenously every day, followed by a non-active period of 28 days during which the patient receives a daily supplement of calcium (1,000 mg/day), with repeat of cycle.
A human subject weighing about 60 kg (132 lbs), suffering from postmenopausal osteoporosis, is treated by a method of this invention. Specifically, for two years, an enkephalin of the formula Tyr-D-Cys(S-t-butylthioether)-Gly-Phe-Leu-Thr(O-t-butylether) ("BUBUC") is administered to the subject, in a cyclical regimen, where each cycle consists of an active period of 28 days during which a solution containing 30 mg of BUBUC is intravenously administered each day, followed by a non-active period of 28 days during which the patient receives a daily supplement of calcium (1,000 mg/day), with repeat of cycle.
A human subject weighing about 60 kg (132 lbs), suffering from postmenopausal osteoporosis, is treated by a method of this invention. Specifically, for two years, the enkephalin secretagogue Tyr-Arg^1, is administered to the subject, in a cyclical regimen, where each cycle consists of an active period of 28 days during which a solution containing 30 mg of Tyr-Arg is intravenously administered each day, followed by a non-active period of 28 days during which the subject receives a daily supplement of calcium (1,000 mg/day), with repeat of cycle. […]
A human subject weighing about 60 kg (132 lbs), suffering from postmenopausal osteoporosis, is treated by a method of this invention. Specifically, each day for five years, the subject is administered 3 tablets, comprised as follows.
A human subject weighing about 60 kg (132 lbs) is evaluated approximately four years after spontaneous menopause, and is found to have low bone mass. The subject is then treated by a method of this invention to treat osteoporosis. Specifically, once each month for five years, the subject is administered, via intravenous injection, 5 ml of a solution comprised as follows.

Square brackets hold non-standard residues; d marks the D form. Peptide text beside a SMILES is read from it. dMet(O) = CS(=O)CC[C@@H](N)C(=O)O; Phe(ol) = N[C@H](CO)Cc1ccccc1

Chain of mu opioid receptor (A0ACM8Q262 1-400): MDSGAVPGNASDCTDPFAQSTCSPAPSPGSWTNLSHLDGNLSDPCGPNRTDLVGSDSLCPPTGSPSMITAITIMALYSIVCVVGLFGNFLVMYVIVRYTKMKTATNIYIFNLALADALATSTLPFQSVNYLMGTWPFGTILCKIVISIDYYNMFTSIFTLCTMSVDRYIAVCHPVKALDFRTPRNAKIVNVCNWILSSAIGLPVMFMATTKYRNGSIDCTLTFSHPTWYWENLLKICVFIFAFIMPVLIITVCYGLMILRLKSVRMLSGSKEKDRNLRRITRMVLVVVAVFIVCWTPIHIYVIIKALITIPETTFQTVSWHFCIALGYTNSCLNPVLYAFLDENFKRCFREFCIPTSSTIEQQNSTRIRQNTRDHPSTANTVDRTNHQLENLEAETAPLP

On to `CC(C)C[C@@H](NC(=O)[C@H](Cc1ccccc1)NC(=O)CNC(=O)[C@@H](C)NC(=O)[C@@H](N)Cc1ccc(O)cc1)C(=O)O` [DADLE, H-Tyr-D-Ala-Gly-Phe-D-Leu-OH], for which the “in vitro mu opioid receptor affinity (IC50 ≤1000 times the IC50 of non-radiolabeled DAGO)” value at mu opioid receptor was “significant in vitro mu opioid receptor affinity”. The “[3H]-thymidine incorporation (proliferation) vs control” value in test [1] was “significantly stimulated proliferation of the osteoblast-like cells”. In addition, the “density of vertebrae / bone mass” value is listed as “an increase in bone mass” in test [2] and “substantially similar results” in test [2] (listed as H-Tyr-D-Ala-Gly-Phe-D-Leu).
`C[C@@H](NC(=O)[C@@H](N)Cc1ccc(O)cc1)C(=O)NCC(=O)N(C)[C@@H](Cc1ccccc1)C(=O)N[C@H](CO)CC[S+](C)[O-]` (stereo partly drawn) [H-Tyr-D-Ala-Gly-N-methyl-Phe-Met(sulfoxide)(ol)]: the “density of vertebrae / bone mass” value in test [2] is “substantially similar results”.
The same measure, in the same setting: with `CC(C)C[C@H](NC(=O)[C@H](Cc1ccccc1)NC(=O)CNC(=O)[C@@H](C)NC(=O)[C@@H](N)Cc1ccc(O)cc1)C(N)=O` [H-Tyr-D-Ala-Gly-Phe-Leu-NH2] the entry was “substantially similar results”; with `CSCC[C@H](NC(=O)[C@H](Cc1ccccc1)NC(=O)CNC(=O)[C@@H](C)NC(=O)[C@@H](N)Cc1ccc(O)cc1)C(N)=O` [H-Tyr-D-Ala-Gly-Phe-Met-NH2], “substantially similar results”; with `CSCC[C@H](NC(=O)[C@H](Cc1ccccc1)NC(=O)[C@@H](C)NC(=O)[C@@H](N)Cc1ccc(O)cc1)C(N)=O` [H-Tyr-D-Ala-Phe-Met-NH2] (H-Y[dA]FM-NH2), “substantially similar results”.
The same measure, in the same setting: with `C[S+]([O-])CC[C@@H](NC(=O)[C@@H](N)Cc1ccc(O)cc1)C(=O)NCC(=O)N[C@H](CO)Cc1ccccc1` (stereo partly drawn) [H-Tyr-D-Met(O)-Gly-Phe(ol)] (H-Y[dMet(O)]G[Phe(ol)]) the entry was “substantially similar results”.
The same measure, in the same setting: with `CSCC[C@@H](NC(=O)[C@@H](N)Cc1ccc(O)cc1)C(=O)NCC(=O)N[C@@H](Cc1ccccc1)C(=O)N1CCC[C@H]1C(N)=O` [H-Tyr-D-Met-Gly-Phe-Pro-NH2] (H-Y[dM]GFP-NH2) the entry was “substantially similar results”; with `CC(C)C[C@H](NC(=O)[C@H](Cc1ccccc1)NC(=O)CNC(=O)[C@@H](COC(C)(C)C)NC(=O)[C@@H](N)Cc1ccc(O)cc1)C(=O)N[C@H](C(=O)O)[C@@H](C)OC(C)(C)C` [H-Tyr-D-Ser(O-t-butylether)-Gly-Phe-Leu-Thr(O-t-butylether)], “substantially similar results”.
Consider `CC(C)C[C@H](NC(=O)[C@H](Cc1ccccc1)NC(=O)CNC(=O)[C@@H](COC(C)(C)C)NC(=O)[C@@H](N)Cc1ccc(O)cc1)C(=O)N[C@H](C(=O)O)[C@@H](C)O` [H-Tyr-D-Ser(O-t-butylether)-Gly-Phe-Leu-Thr], for which the “density of vertebrae / bone mass” value in test [2] is recorded as “substantially similar results”.
On the same count and under the same terms, with “H-(2,6-dimethyl-Try)-D-Ala-NH-phenylpropyl” the entry was “substantially similar results”; with H-Tyr-D-Pen-Gly-Phe-Pen, “substantially similar results”.
